Patent US12484574B2, “Agent for promoting undifferentiation and cryoprotective agent using aprotic zwitterion” (JAPAN SCIENCE AND TECHNOLOGY AGENCY, priority 2019, dated 2025)

How the values were obtained:
Human iPS cells = test: Undifferentiation-specific gene expression analysis (Nanog, Oct3/4 quantitative PCR); assay type: cell-based; settings: no addition defined as 1
Protocol: Human iPS cells (RIKEN BRC) were reconstituted on SNL feeder cells (manufactured by Cell Biolabs, Inc.) and cultured in a CO2 incubator (5% CO2, 37° C., wet). On the next day, medium replacement was performed. The medium was replaced with a fresh one every day until 80% confluency. The cells that reached 80% confluency were recovered and subcultured. The subculture method for the cells is as follows: the cells were washed with DPBS(−) (no calcium, no magnesium, Thermo Fisher Scientific Inc.) and then treated with a CTK solution ((0.25% trypsin+1 mg/ml collagenase IV+1 mM CaCl2+20% KSR in DPBS (−))). The CTK solution was removed, and the cells were washed with DPBS(−) twice. […]
Subsequently, the expression levels of undifferentiation-specific genes Nanog and Oct3/4 were measured. […] The expression levels of the undifferentiation markers were quantified by the following method. […]
cDNA was synthesized from the FastLane lysate (RNA) through RT-PCR reaction using QuantiTect Reverse Transcription Kit (manufactured by Qiagen N.V.).
The quantitative PCR of OCT3/4 and NANOG was carried out under conditions of 95° C. for 30 seconds; (95° C. for 5 seconds; 60° C. for 30 seconds)×40; dissociation using SYBR Premix Ex Taq II (Tli RNaseH Plus) (manufactured by Takara Bio Inc.). […]

human fibroblasts = test: Influence on cell cycle (Click-iT Plus EdU cell proliferation assay); assay type: cell-based; settings: 2% addition; compared with no addition; FIG. 11
Protocol: The cells used were human fibroblasts.
The test groups were 1% addition groups and 2% addition groups of DMSO and HLS (OE2imC3C) vs. a control.
Cell cycle analysis was conducted using Click-iT® Plus EdU cell proliferation assay (Thermo Fisher Scientific Inc.) containing 5-ethynyl-2′-deoxyuridine (EdU) according to the manufacturer's protocol. The cells were incubated in 10 μM EdU for 1 hour, treated with trypsin, then fixed in 4% PFA, and labeled with Alexa Fluor 647 picolyl azide. The cells were stained with 4′,6-diamidino-2-phenylindole (DAPI) and analyzed with BD FACSAria™ III (BD Biosciences).

[1] = Glass transition temperature and heat quantity by differential scanning calorimetry (DSC); assay type: physicochemical; settings: 10 wt % in purified water, cooling −1° C./min, heating 5° C./min
Protocol: The glass transition temperature and the heat quantity were determined by differential scanning calorimetry (DSC). The measurement was performed with a cooling rate set to −1° C./min an d a heating rate set to 5° C./min.

## COCCOCCn1cc[n+](CCCC(=O)[O-])c1 [OE2imC3C]
Human iPS cells; with SNL feeder cells, 0.4, 1.0 and 2.0% (w/v) in human iPS cell medium, FIG. 1
  relative expression levels of Nanog and Oct3/4: amplify the undifferentiation markers
Human iPS cells; without feeder cells, 1.0 and 2.0% (w/v) in SNL-conditioned medium, FIG. 2
  relative expression levels of Nanog and Oct3/4: amplify the undifferentiation markers
Human fibroblasts
  influence on cell cycle (G0/G1 phase, S phase): little influence
[1]
  Heat quantity: -198.7 J/g
  Tg: −85.69 °C
